Reference: patent US20190316085A1, “Methods Of T-Lymphocyte Expansion” (Cambridge Enterprise Limited, priority 2015, published 2019)

What was measured:
CD8^+ T-lymphocytes = assay: Proliferation after activation (CFSE dilution, viable cell number); type: cell-based, mouse; details: 0.5 mM; for proliferation following activation: with IL-2
Protocol: Data are representative of 4 mice.
Cells were then treated with 0.5 mM S-2HG-octyl ester, 0.5 mM R-2HG-octyl ester or vehicle and counting was performed at indicated time points after initiation of treatment. n=8 mice per condition.
Cells were counted on an ADAM-MC automated cell counter (NanoEnTek) and viability was assessed by the exclusion of propidium iodide. Cell volume was determined using a Z2 Coulter counter (Beckman Coulter).

HIF-1α = assay: Immunoblot of nuclear fractions for HIF-1α in treated CD8+ T-lymphocytes; type: cell-based, mouse; details: for abundance of HIF-1α protein at 7 days of continuous treatment: 0.5 mM
Protocol: FIG. 6A showns immunoblot analysis for HIF-1α, HDAC1, phospho-PDH E1α (S232) and total PDH-E1α in response to increasing concentrations of S-2HG-octyl ester or R-2HG-octyl ester, or 10 mM of the free acid forms of S-2HG or R-2HG for 16 hours. Cells were activated for 48 h with αCD3+αCD28 antibodies and then expanded for a further 4 days in the presence of IL-2 followed by treatment with the indicated concentration of S-2HG-octyl ester or R-2HG octyl ester, or 10 mM of the free acid forms of S-2HG or R-2HG for 16 hours. The arrow indicates HIF-1α protein.
The arrow indicates HIF-2a protein.
Nuclear and cytosolic fractions were prepared from cells with the NE-PER kit (Thermo Scientific) and separated by SDS-PAGE. Proteins were transferred to PVDF membranes and then blocked in 5% milk prepared in phosphate-buffered saline (PBS) plus 0.05% Tween 20. Membranes were then incubated with primary antibodies overnight at 4° C. and horseradish peroxidase (HRP)-conjugated secondary antibodies for 1 h the next day. The following primary antibodies were used at a dilution of 1:1000: HIF1α (Novus), HIF2α (Novus), PDH-E1α (Abcam), PDH-E1α pS232 (Calbiochem), LaminB1 (Abcam), HDAC1 (Abcam), β-tubulin (Abcam), 4E-BP1 (Cell Signalling), phospho-4E-BP1 (S65) (Cell Signalling), phospho-4E-BP1 (T37/T46) (Cell Signalling) S6K (Cell Signalling), phopho-S6K (T389) (Cell Signalling), phopho-S6K (S371) (Cell Signalling).

| SMILES | restriction in proliferation compared with S-2HG-octyl ester (CD8^+ T-lymphocytes) | proliferation following activation (CD8^+ T-lymphocytes) | abundance of HIF-1α protein at 7 days of continuous treatment (HIF-1α) | HIF-1α stabilization (HIF-1α; increasing concentrations of octyl ester, 16 hours, activated CD8+ T-lymphocytes) |
| --- | --- | --- | --- | --- |
| CCCCCCCCOC(=O)[C@H](O)CCC(=O)O [R-2HG-octyl ester] | less pronounced | decreasing proliferation | increase in abundance is seen | – |
| CCCCCCCCOC(=O)[C@@H](O)CCC(=O)O [S-2HG-octyl ester, S-2HG octyl ester] | – | decreasing proliferation | increase in abundance is seen | stabilized |
